Measured values: paper PMC11080064, “Inositol Hexaphosphate as an Inhibitor and Potential Regulator of p47^phox Membrane Anchoring” (Biochemistry, 2024)
“Also recorded” adds a separate entry of the source.

Columns and labels:
[1] = target: T1, p47phox-PX (PX domain of p47phox, residues 1-128) (Homo sapiens, UniProt P14598); test: 1H-15N-HSQC NMR titration (chemical shift perturbation) of inositol phosphates; type: binding; details: for Kd / binding observed by NMR (CSPs): 100 μM p47phox-PX; for Kd: pH 6.0, 25 °C, read-out: Kd (binding affinity, global fit of CSPs); for binding observed by NMR (CSPs): up to 64 mM
T1 construct: poly histidine tag (TEV cleavable) (cleaved yes); made in house; host or cells: E. coli BL21 (DE3)
T1 sequence (P14598 1-128): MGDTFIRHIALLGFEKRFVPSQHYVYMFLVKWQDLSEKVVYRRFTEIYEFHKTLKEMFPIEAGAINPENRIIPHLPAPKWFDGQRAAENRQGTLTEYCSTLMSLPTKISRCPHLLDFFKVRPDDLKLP
Description: All NMR samples were prepared with either ^15N- or ^15N–^13C-p47^phox-PX in 50 mM Bis-Tris (pH 6.0), 100 mM NaCl, 1 mM DTT, 0.02% (v/v) sodium azide and 10% D2O as a lock solvent. Protein concentration was typically 100 μM in each sample, as confirmed by the Bradford Assay. NMR experiments were collected on a 600 MHz Bruker AVANCE III equipped with a TXI triple resonance probe at 25 °C. NMR assignments of the PX domain were transferred from a previous publication,[24] then were confirmed, and expanded by collection of 3D HNCA, HN(CA)CB, and CBCA(CO)NH experiments on a 700 MHz Bruker AVANCE III at 25 °C.[41]−[43] Standard Bruker pulse sequences were used with the HNCA collected with 64 scans and 1024 × 40 × 48 total points, the HN(CA)CB collected with 64 scans and 1024 × 40 × 64 total points, and the CBCA(CO)NH collected with 32 scans and 1024 × 40 × 96 total points. NMR data was processed with NMRPipe[44] and analyzed using NMRFAM-Sparky.[45]
For NMR titrations, inositol phosphate stocks were prepared in the same NMR buffer, the IP6 stock was pH adjusted, and added in 0.25, 0.5, 2, and 4 to 1 mol equiv to the PX domain of p47^phox. Due to the high buffering capacity of IPs, pH values were checked during titrations and corrected as needed. ^1H–^15N-HSQC spectra were collected at each titration point, using a standard Bruker pulse sequence, collected with 2048 × 100 total points and 16 or 32 scans. Chemical shift perturbations (CSPs) were calculated using weighted chemical shifts in the following formula[46]: [drawing 1] where Δ^1H and Δ^15N represent the changes in the ^1H and ^15N chemical shifts for each resonance. To calculate the binding affinity of IPs to the PX domain of p47^phox, residues with ≥0.08 CSP at the highest titration point were fit to the following formula, which accounts for ligand depletion, on GraphPad Prism 10: [drawing 2] where CSP denotes the CSP of the individual residue at each IP concentration ([L]), Dmax represents the CSP at saturation, [P] represents the concentration of p47^phox-PX, and Kd represents the dissociation constant of p47^phox-PX and IP. The formula was initially fit to each residue individually and any residue with R^2 < 0.95 was removed before fitting the data globally to determine the overall binding affinity.

[2] = target: T2, p47phox-PX (Homo sapiens, UniProt P14598); test: Fluorescence polarization competition against BODIPY-PI(3,4)P2 tracer; type: binding
T2 construct: poly histidine tag (TEV cleavable) (cleaved yes); made in house; host or cells: E. coli BL21 (DE3)
T2 sequence (P14598 1-128): T1 sequence (P14598 1-128)
Description: All fluorescence polarization (FP) experiments were performed using BODIPY-FL diC6–PI(3,4)P2 [Echelon Biosciences (Salt Lake City, UT)] as the reporting tracer. […] Each sample contained 50 nM BODIPY-PI(3,4)P2 and was plated in triplicate on a black half area 96-well microplate [Corning (Corning, NY)]. The plate was centrifuged at 500 rpm for 30 s prior to analysis on a SpectraMax M5 [Molecular Devices (San Jose, CA)]. Measurements were taken using a monochromator with fixed excitation and emission wavelengths of 485 and 525 nm, respectively, and a cutoff of 515 nm. Raw data was converted to millipolarization (mP) using the SoftMax Pro software [Molecular Devices (San Jose, CA)]. mP values were then converted to anisotropy (A) using the following formula: [drawing 3]
A 2-fold dilution series of IP was performed, ranging from 50–0.05 μM IP in the presence of 2.5 μM p47^phox-PX and 50 nM BODIPY-PI(3,4)P2. Samples were plated in triplicate on a black half area microplate, centrifuged at 500 rpm for 30 s, and incubated for 1 h prior to analysis. The data was converted to anisotropy and fit to a four-parameter, variable slope, dose–response equation on GraphPad Prism 10. The IC50 from the dose–response equation was converted to an inhibitory constant (Ki) using a IC50-to-Ki calculator, which incorporated the following formula[47]: [drawing 5] where I50 and L50 are the free concentrations of IP and BODIPY-PI(3,4)P2, respectively, at 50% inhibition, and P0 is the free concentration of p47^phox-PX in the absence of IP.

[3] = target: T3, p47phox-PX binding to PI(3,4)P2-containing liposomes (Homo sapiens, UniProt P14598); test: Dansyl-PE liposome FRET assay of membrane anchoring; type: biochemical; details: 2.5 μM p47phox-PX, 125 μM accessible lipid, 79:15:1:5 POPC:POPE:diC16-PI(3,4)P2:Dansyl-PE, pH 7.0, 1 mM MgCl2; read-out: apparent IC50 of inhibition of membrane anchoring
T3 construct: poly histidine tag (TEV cleavable) (cleaved yes); made in house; host or cells: E. coli BL21 (DE3)
T3 sequence (P14598 1-128): T1 sequence (P14598 1-128)
Description: To ensure proper liposome formation, phosphatidylinositol stocks were protonated prior to use adapted from a previously published protocol.[28] In brief, lyophilized PI(3,4)P2 lipids were resuspended in CHCl3 and dried under nitrogen. Lipids were then further dried under a speed vacuum for 1 h followed by a resuspension into 2:1:0.01 CHCl3: MeOH: 1 M HCl. The suspension was allowed to sit at room temperature for 15 min before the drying process was repeated. Lipids were then reconstituted in 3:1 CHCl3: MeOH and dried as above. The process was repeated with CHCl3 before a final resuspension into CHCl3 at the desired concentration and storage of protonated stocks at −80 °C. […]
The FRET assay was performed based on a previously published protocol,[48] where intrinsic tryptophan fluorescence within the PX domain was utilized as the donor fluorophore and Dansyl-PE incorporated within liposomes as the acceptor fluorophore. […] Samples were mixed for 40 s after each IP6 addition and were analyzed on an OLIS 14 TB NIR/CD Spectrophotometer [Olis (Bogart, GA)] equipped with a UV/vis photon counter 230–870 nm fluorescence detector. […] Each titration point measurement was integrated over 10 s and measured in triplicate. […]

[4] = target: T2, p47phox-PX; test: Fluorescence polarization direct binding of BODIPY-PI(3,4)P2 tracer; details: 50 nM tracer, 10-0.02 μM protein, pH 7.0, 1 mM MgCl2
Description: All fluorescence polarization (FP) experiments were performed using BODIPY-FL diC6–PI(3,4)P2 [Echelon Biosciences (Salt Lake City, UT)] as the reporting tracer. To determine the binding affinity of the fluorophore to p47^phox-PX, a series of 2-fold dilutions, ranging from 10–0.02 μM protein, were performed in 50 mM Bis-Tris (pH 7.0), 100 mM NaCl, 1 mM MgCl2, and 1 mM DTT. Each sample contained 50 nM BODIPY-PI(3,4)P2 and was plated in triplicate on a black half area 96-well microplate [Corning (Corning, NY)]. The plate was centrifuged at 500 rpm for 30 s prior to analysis on a SpectraMax M5 [Molecular Devices (San Jose, CA)]. Measurements were taken using a monochromator with fixed excitation and emission wavelengths of 485 and 525 nm, respectively, and a cutoff of 515 nm. Raw data was converted to millipolarization (mP) using the SoftMax Pro software [Molecular Devices (San Jose, CA)]. mP values were then converted to anisotropy (A) using the following formula: [drawing 3] […]

O=P(O)(O)O[C@@H]1[C@@H](OP(=O)(O)O)[C@H](OP(=O)(O)O)[C@H](O)[C@H](OP(=O)(O)O)[C@H]1OP(=O)(O)O [IP5, inositol (1,3,4,5,6) pentakisphosphate]
Kd ([1]; NMR titration): 58 ± 6 µM
competition with BODIPY-PI(3,4)P2 binding ([2]; up to 50 μM, 2.5 μM p47phox-PX, 50 nM tracer): no apparent capacity to inhibit; also recorded: no significant observed competition

O=P(O)(O)O[C@H]1[C@H](O)[C@@H](OP(=O)(O)O)[C@H](OP(=O)(O)O)[C@@H](OP(=O)(O)O)[C@H]1O [IP4, inositol (1,3,4,5) tetrakisphosphate]
Kd ([1]; NMR titration): 100 ± 11 µM

O[C@H]1[C@H](O)[C@@H](O)[C@H](O)[C@@H](O)[C@H]1O [Inositol]
binding observed by NMR (CSPs) [1]: no significant CSPs were observed
binding observed by NMR (CSPs) ([1]; listed as inositol): no significant binding

O=P(O)(O)O[C@H]1[C@H](OP(=O)(O)O)[C@@H](OP(=O)(O)O)[C@H](OP(=O)(O)O)[C@@H](OP(=O)(O)O)[C@H]1OP(=O)(O)O [IP6, inositol hexaphosphate]
approximate affinity inferred from intermediate-exchange line-broadening ([1]; NMR titration, line-broadening precluded Kd fit): low-μM or lower affinity
Ki ([2]; 2.5 μM p47phox-PX, 50 nM BODIPY-PI(3,4)P2, pH 7.0, 1 mM MgCl2, read-out: Ki (inhibition constant, converted from IC50)): 0.6 ± 0.2 µM
effect of lower pH on inhibition / Ki ([2]; pH 6 with 1 mM MgCl2, compared to pH 7.0): no significant change in Ki; also recorded: only a minor effect
effect of absence of MgCl2 on inhibition / Ki ([2]; pH 6 with no MgCl2): no significant change in Ki; also recorded: little to no effect
IC50 [3]: 1.3 ± 0.3 µM

O=P(O)(O)O[C@H]1[C@H](O)[C@@H](O)[C@H](OP(=O)(O)O)[C@@H](OP(=O)(O)O)[C@H]1O [IP3, inositol (1,3,4) trisphosphate]
Kd ([1]; NMR titration): 200 ± 50 µM

BODIPY-FL diC6–PI(3,4)P2 [BODIPY-PI(3,4)P2]
Kd [4]: 0.35 ± 0.05 µM

O=P(O)(O)OC1[C@H](O)[C@H](O)C(O)[C@H](O)[C@H]1O (stereo partly shown) [inositol-1-phosphate]
Kd ([1]; NMR titration): 870 ± 120 µM
